Assay [1] concerns Arabidopsis microsomal protein. Description: [3H]NAE 14:0 radioligand binding to Arabidopsis leaf microsomes. Further details: species or system Arabidopsis thaliana. As to conditions: 5 nM SR144528, [3H]NAE 14:0 50 nM. On the procedure: FIG. 1. Analysis of specific binding of [^3H]NAE 14:0 to DDM solubilized (0.2 mM) microsomes (25 μg of protein) isolated from A. thaliana (ecotype Columbia) leaves (150,000×g) with a concentration ranging from 10 to 80 nM. Specific binding was determined by subtracting nonspecific binding (binding in the presence of 1,500× nonradioactive NAE 14:0) values from total radioligand binding values in duplicate assays. Binding affinity and Bmax of [^3H]NAE 14:0 was estimated by fitting the saturation binding data to nonlinear regression analysis for a one-site binding equation using Prism 3.0, Graphpad software, San Diego.
FIG. 7 Microsomes from A. thaliana leaves and affinity purified (P) protein from T10-1 cell lysate were incubated with [^3H]NAE 14:0 (50 nM) in the presence and absence of CB receptor antagonist SR144528 (5 nM) to compare the influence on [3H]NAE binding. Values represent means of triplicate assays from an individual experiment reproduced twice.
[^3H]NAE 14:0 radioligand was synthesized from [9,10-^3H(N)]myristic acid (PerkinElmer Life Sciences, Boston) in a modified two step reaction (Hillard et al., 1995; Devane et al., 1992). In step one, acylchloride is prepared from [3 H] […] The [^3H]NAE 14:0 formed was further purified and quantified by separating on thin layer chromatography (TLC) and radiometric scanning respectively (Tripathy et al., 2003). […]

In assay [2] the test system is NAE binding protein (At1g26440). Description: [3H]NAE 14:0 radioligand binding to recombinant At1g26440 protein expressed in E. coli. More on the design: species or system Arabidopsis thaliana. On the procedure: FIG. 4 Full length cDNAs synthesized through RT-PCR on Arabidopsis total RNA using gene specific primers to At1g26440 were cloned into pTrc His2 expression vector and the recombinant protein over expressed in E. coli Top10 competent cells (Invitrogen, Cat. No. K4400-01 and K4400-40). Positive clones selected on amp-glucose agar plates were analyzed for producing NAE 14:0 binding protein by using [^3H]NAE 14:0 binding assay (Tripathy et al., 2003). Bacterial lysate (L) prepared from pelleted positive clones induced with IPTG for recombinant protein production was used as the protein source. T10-1, T-10-2, T10-3: Positive clones carrying A. thaliana NAE-binding protein (At1g26440); T10-4: Negative clone carrying the gene sequence in reverse orientation; T10-0: Control Top10 cells. Binding assay was performed on cell lysate (L) and the affinity purified (ProBond purification system, Invitrogen) recombinant protein (P) fraction. Histograms represent binding activity (from two studies with four replicates each).
FIG. 5 Saturation binding of [^3H]NAE 14:0 to a candidate NAE binding protein (At1g26440) expressed in E. coli Top10 cell lysate. The candidate NAE binding protein was a full-length, in-frame cDNA. […]
[^3H]NAE 14:0 radioligand was synthesized from [9,10-^3H(N)]myristic acid (PerkinElmer Life Sciences, Boston) in a modified two step reaction (Hillard et al., 1995; Devane et al., 1992). […] The [^3H]NAE 14:0 formed was further purified and quantified by separating on thin layer chromatography (TLC) and radiometric scanning respectively (Tripathy et al., 2003).
Binding activity of [^3H]NAE 14:0 was carried out with DDM-solubilized microsomes from Arabidopsis (ecotype, columbia) leaves (Tripathy et al., 2003b) or recombinant protein produced in E. coli and solubilized in DDM. […] Unbound ligands were washed off with ice cold binding buffer (75 mM potassium-phosphate buffer, pH 7.2, 300 mM sucrose, 7.5 mM KCl, 0.75 mM EDTA, 0.75 mM EGTA, 0.5 mM ascorbate, 5 mM DTT, and 1.5% BSA) under vacuum and frozen filters were excised into scintillation cocktail for radioactivity estimation.

In assay [3] the test system is defense gene (Phenylalanine-ammonia lyase) expression. The note with it: coadministration, leaves; cited from earlier work.
The subject of assay [4] is membrane-associated NAE-binding activities. As to conditions: cited from earlier work; for challenge of [3H]NAE 14:0 binding by CB receptor antagonist: plant membranes.

For the compound SR144528, the “effect on NAE14:0 binding” value is reported as “diminished” in assay [1] and “diminished” in assay [2] (5 nM SR144528, [3H]NAE 14:0 50 nM, recombinant At1g26440 gene product). Further, the “effect on NAE specific binding” value in assay [2] (higher concentrations of SR144528 (above 5 nM), preparation not specified) was “eliminated”. For the same compound, in assay [3], the “effect on NAE-regulated defense gene expression” value is on record as “blocked”. Moreover, the “challenge of [3H]NAE 14:0 binding by CB receptor antagonist” value in assay [4] is reported as “potently challenged”.

`CCCCCCCCCCCCCC(=O)NCCO` [NAE 14:0]: the “affinity of recombinant protein for NAE 14:0 (saturation binding)” value in assay [2] (recombinant At1g26440 expressed in E. coli, DDM solubilized) is “high affinity”. The “binding activity of [3H]NAE 14:0 (affinity)” value in assay [4] (membrane-associated, saturable, in lower nanomolar range) is recorded as “high affinity”.

For `Cc1c(C(=O)NN2CCOCC2)nn(-c2ccc(Cl)cc2Cl)c1-c1ccc(I)cc1` [AM 281], the “challenge of [3H]NAE 14:0 binding by CB receptor antagonist” value in assay [4] was “potently challenged”.
